Laboratory results as given in patent US20120238520A1, “Novel Medical Use” (priority 2009, published 2012).
Counter-ions that a name gives are not always drawn.

Columns and labels:
Type in all cases: in vivo, rat
HCl-instilled rats = assay: HCl (acid aspiration, chemical injury) model of acute lung injury in anesthetized, ventilated rats; settings: rats 2 h after intratracheal HCl pH 1.5, vs HCl alone
Excerpt: (§1) The preparation of anesthetized, ventilated rats was used to carry out the below described examples. Techniques of the below described examples have been published (Frank J A, Gutierrez J A, Jones K D, et al.: Low tidal volume reduces epithelial and endothelial injury in acid-injured rat lungs. Am. J. Respir. Crit. Care Med. 165:242-249, 2002; Folkesson H G, Nitenberg G, Oliver B L, et al.: Upregulation of alveolar epithelial fluid transport after subacute lung injury in rats from bleomycin. Am. J. Physiol. 275:L478-490, 1998; Folkesson H G, Norlin A, Wang Y, et al., Dexamethasone and thyroid hormone pretreatment upregulate alveolar epithelial fluid clearance in adult rats. J. Appl. Physiol. 88: 416-424, 2000; and Norlin A, Lu L N, Guggino S E, et al., Contribution of amiloride-insensitive pathways to alveolar fluid clearance in adult rats. J. Appl. Physiol. 90: 1489-1496, 2001).
The methods used are published in the above given references. […]
To evaluate the effect of HCl (chemical injury; a model of aspiration-induced acute lung injury), HCl at pH 1.5 was used (FIG. 1, bottom panel illustrates the time scheme used for HCl treatments). […] Blood was sampled for fluorescence and arterial blood gas measurements every 30 min throughout the experiment. […]

rats = assay: Test solution instilled into airspaces of anesthetized, ventilated rats without injury-inducing agent; settings: compound by itself, 10^−4 M in 5% albumin instilled into airspaces, any experimental group
Excerpt: as §1
The methods used are published in the above given references. A test solution of 5% albumin with and without […] (2R,3R,4S,5R)-2-(6-amino-2-{[(1S)-2-hydroxy-1-(phenylmethyl)ethyl]amino}-9H-purin-9-yl)-5-(2-ethyl-2H-tetrazol-5-yl)tetrahydro-3,4-furandiol maleate dissolved in 0.9% NaCl was used and instilled into the airspaces of rats to measure alveolar fluid clearance with and without the injury-inducing agent (HCl, LPS, or E. coil, see below for details). […]

LPS-instilled rats = assay: LPS (endotoxin, biochemical injury) model of sepsis-induced acute lung injury in anesthetized, ventilated rats; settings: rats 16 h after intratracheal LPS 5 mg/kg body wt, vs LPS alone
Excerpt: as §1, with “2001). […]” for “2001).”
To evaluate the effect of endotoxin (biochemical injury; a model of sepsis-induced acute lung injury), E. coli LPS at the concentration of 5 mg/kg body wt was given intratracheally (FIG. 1, top panel illustrates the time scheme used for LPS treatments). […] Blood was sampled for fluorescence and arterial blood gas measurements every 30 min throughout the experiment. […] Alveolar fluid clearance, extravascular lung water, and endothelial-epithelial barrier leak were determined.

[1] = tested on: live E. coli-instilled rats; assay: Live E. coli DH5α (biological injury) model of sepsis-induced acute lung injury in anesthetized, ventilated rats; settings: rats 3 h after intratracheal live E. coli DH5α, vs E. coli alone
Method: The preparation of anesthetized, ventilated rats was used to carry out the below described examples. […]
To evaluate the effect of live E. coli (biological injury; a model of sepsis-induced acute lung injury), E. coli (serotype DH5α at the concentration of 10^8 cfu/ml was given intratracheally (FIG. 2). Rats were surgically prepared (anesthetized, tracheotomized, outfitted with a carotid artery catheter, and connected to a ventilator). The rats were ventilated for a 30 min baseline of stable blood gases. An instillation catheter was passed to rest just above the bronchial carina and 1 ml/kg body wt of the solution containing 10^8 cfu/ml E. coli DH5α was rapidly instilled into the lungs. The vascular tracer (FITC-labeled albumin) was given after 15 min stabilization time and the 5% albumin solution with and without (2R,3R,4S,5R)-2-(6-amino-2-{[(1S)-2-hydroxy-1-(phenylmethyl)ethyl]amino}-9H-purin-9-yl)-5-(2-ethyl-2H-tetrazol-5-yl)tetrahydro-3,4-furandiol maleate was instilled 2 h later into the distal airspaces of the lung. Blood was sampled for fluorescence and arterial blood gas measurements every 30 min throughout the experiment. […] Alveolar fluid clearance, extravascular lung water, and endothelial-epithelial barrier leak were determined.

CCn1nnc([C@H]2O[C@@H](n3cnc4c(N)nc(N[C@H](CO)Cc5ccccc5)nc43)[C@H](O)[C@@H]2O)n1 [(2R,3R,4S,5R)-2-(6-amino-2-{[(1S)-2-hydroxy-1-(phenylmethyl)ethyl]amino}-9H-purin-9-yl)-5-(2-ethyl-2H-tetrazol-5-yl)tetrahydro-3,4-furandiol maleate]
EVLW (extravascular lung water) (HCl-instilled rats; 10^−4 M compound in 5% albumin instilled into airspaces, FIG. 3 left): a reduction in EVLW was observed, albeit EVLW remained elevated
ELW (excess lung water) reduced by (HCl-instilled rats; 10^−4 M compound instilled, ELW remained elevated compared to control, FIG. 4 left): ~20%
edema formation measured as increased EVLW (extravascular lung water) (rats): believed not to result in edema formation
EVLW (extravascular lung water) (LPS-instilled rats; 10^−4 M compound in 5% albumin instilled into airspaces, FIG. 3 center): a reduction in EVLW was observed
ELW (excess lung water) reduced by (LPS-instilled rats; 10^−4 M compound instilled, FIG. 4 center): ~40%
EVLW (extravascular lung water) ([1]; 10^−4 M compound in 5% albumin instilled into airspaces, FIG. 3 right): a reduction in EVLW was observed
ELW (excess lung water) reduced by ([1]; 10^−4 M compound instilled, FIG. 4 right): ~40%
